Data as given in the NIST ThermoML archive (doi:10.1016/j.jct.2012.11.032).
Numbers after ± are expanded uncertainties.

Experiment: xn = mol fraction of the nth substance listed
Settings: 101 kPa, Liquid; for speed of sound: Sing-around technique in a fixed-path interferometer; for mass density: Vibrating tube method

CCCCCCCCCCCC[n+]1ccn(C)c1.[Cl-] [1-dodecyl-3-methylimidazolium chloride] + O
Settings	mass density [kg/m3]	speed of sound [m/s]
283 K, x1 = 2.7e-05	999.688 ± 0.1	–
283 K, x1 = 3e-05	999.704 ± 0.1	–
283 K, x1 = 4.8e-05	999.71 ± 0.1	–
283 K, x1 = 7.4e-05	999.71 ± 0.1	–
283 K, x1 = 9.4e-05	999.705 ± 0.1	–
283 K, x1 = 0.000109	999.71 ± 0.1	–
283 K, x1 = 0.000129	999.718 ± 0.1	–
283 K, x1 = 0.000145	999.717 ± 0.1	–
283 K, x1 = 0.000163	999.735 ± 0.1	–
283 K, x1 = 0.000181	999.724 ± 0.1	–
283 K, x1 = 0.000208	999.73 ± 0.1	–
283 K, x1 = 0.000234	999.729 ± 0.1	–
283 K, x1 = 0.000248	999.744 ± 0.1	–
283 K, x1 = 0.000273	999.743 ± 0.1	–
283 K, x1 = 0.000286	999.744 ± 0.1	–
283 K, x1 = 0.000302	999.732 ± 0.1	–
283 K, x1 = 0.000319	999.749 ± 0.1	–
283 K, x1 = 0.000341	999.737 ± 0.1	–
283 K, x1 = 0.000384	999.728 ± 0.1	–
283 K, x1 = 0.000407	999.721 ± 0.1	–
283 K, x1 = 0.000428	999.712 ± 0.1	–
283 K, x1 = 0.0027	–	1448.4 ± 1.2
283 K, x1 = 0.003	–	1448.5 ± 1.2
283 K, x1 = 0.0048	–	1448.8 ± 1.2
283 K, x1 = 0.0074	–	1449.3 ± 1.2
283 K, x1 = 0.0094	–	1449.7 ± 1.2
283 K, x1 = 0.0109	–	1449.9 ± 1.2
283 K, x1 = 0.0129	–	1450.2 ± 1.2
283 K, x1 = 0.0145	–	1450.5 ± 1.2
283 K, x1 = 0.0163	–	1450.8 ± 1.2
283 K, x1 = 0.0181	–	1451.2 ± 1.2
283 K, x1 = 0.0208	–	1451.7 ± 1.2
283 K, x1 = 0.0234	–	1452 ± 1.2
283 K, x1 = 0.0248	–	1452.2 ± 1.2
283 K, x1 = 0.0273	–	1452.6 ± 1.2
283 K, x1 = 0.0286	–	1452.7 ± 1.2
283 K, x1 = 0.0302	–	1452.8 ± 1.2
283 K, x1 = 0.0319	–	1453.1 ± 1.2
283 K, x1 = 0.0341	–	1453.5 ± 1.2
283 K, x1 = 0.0384	–	1453.5 ± 1.2
283 K, x1 = 0.0407	–	1453.7 ± 1.2
283 K, x1 = 0.0428	–	1453.7 ± 1.2
288 K, x1 = 2.7e-05	999.099 ± 0.1	–
288 K, x1 = 3e-05	999.118 ± 0.1	–
288 K, x1 = 4.8e-05	999.119 ± 0.1	–
288 K, x1 = 7.4e-05	999.115 ± 0.1	–
288 K, x1 = 9.4e-05	999.109 ± 0.1	–
288 K, x1 = 0.000109	999.114 ± 0.1	–
288 K, x1 = 0.000129	999.12 ± 0.1	–
288 K, x1 = 0.000145	999.116 ± 0.1	–
288 K, x1 = 0.000163	999.133 ± 0.1	–
288 K, x1 = 0.000181	999.119 ± 0.1	–
288 K, x1 = 0.000208	999.122 ± 0.1	–
288 K, x1 = 0.000234	999.12 ± 0.1	–
288 K, x1 = 0.000248	999.133 ± 0.1	–
288 K, x1 = 0.000273	999.127 ± 0.1	–
288 K, x1 = 0.000286	999.125 ± 0.1	–
288 K, x1 = 0.000302	999.113 ± 0.1	–
288 K, x1 = 0.000319	999.128 ± 0.1	–
288 K, x1 = 0.000341	999.116 ± 0.1	–
288 K, x1 = 0.000384	999.108 ± 0.1	–
288 K, x1 = 0.000407	999.096 ± 0.1	–
288 K, x1 = 0.000428	999.082 ± 0.1	–
288 K, x1 = 0.0027	–	1466.7 ± 1.2
288 K, x1 = 0.003	–	1466.8 ± 1.2
288 K, x1 = 0.0048	–	1467.1 ± 1.2
288 K, x1 = 0.0074	–	1467.6 ± 1.2
288 K, x1 = 0.0094	–	1467.9 ± 1.2
288 K, x1 = 0.0109	–	1468.1 ± 1.2
288 K, x1 = 0.0129	–	1468.4 ± 1.2
288 K, x1 = 0.0145	–	1468.6 ± 1.2
288 K, x1 = 0.0163	–	1468.9 ± 1.2
288 K, x1 = 0.0181	–	1469.2 ± 1.2
288 K, x1 = 0.0208	–	1469.7 ± 1.2
288 K, x1 = 0.0234	–	1470 ± 1.2
288 K, x1 = 0.0248	–	1470.2 ± 1.2
288 K, x1 = 0.0273	–	1470.5 ± 1.2
288 K, x1 = 0.0286	–	1470.6 ± 1.2
288 K, x1 = 0.0302	–	1470.7 ± 1.2
288 K, x1 = 0.0319	–	1470.9 ± 1.2
288 K, x1 = 0.0341	–	1471 ± 1.2
288 K, x1 = 0.0384	–	1471 ± 1.2
288 K, x1 = 0.0407	–	1471.2 ± 1.2
288 K, x1 = 0.0428	–	1471.2 ± 1.2
293 K, x1 = 2.7e-05	998.213 ± 0.1	–
293 K, x1 = 3e-05	998.232 ± 0.1	–
293 K, x1 = 4.8e-05	998.233 ± 0.1	–
293 K, x1 = 7.4e-05	998.224 ± 0.1	–
293 K, x1 = 9.4e-05	998.217 ± 0.1	–
293 K, x1 = 0.000109	998.222 ± 0.1	–
293 K, x1 = 0.000129	998.227 ± 0.1	–
293 K, x1 = 0.000145	998.219 ± 0.1	–
293 K, x1 = 0.000163	998.236 ± 0.1	–
293 K, x1 = 0.000181	998.221 ± 0.1	–
293 K, x1 = 0.000208	998.22 ± 0.1	–
293 K, x1 = 0.000234	998.218 ± 0.1	–
293 K, x1 = 0.000248	998.227 ± 0.1	–
293 K, x1 = 0.000273	998.218 ± 0.1	–
293 K, x1 = 0.000286	998.214 ± 0.1	–
293 K, x1 = 0.000302	998.2 ± 0.1	–
293 K, x1 = 0.000319	998.213 ± 0.1	–
293 K, x1 = 0.000341	998.199 ± 0.1	–
293 K, x1 = 0.000384	998.191 ± 0.1	–
293 K, x1 = 0.000407	998.175 ± 0.1	–
293 K, x1 = 0.000428	998.16 ± 0.1	–
293 K, x1 = 0.0027	–	1482.9 ± 1.2
293 K, x1 = 0.003	–	1483 ± 1.2
293 K, x1 = 0.0048	–	1483.3 ± 1.2
293 K, x1 = 0.0074	–	1483.7 ± 1.2
293 K, x1 = 0.0094	–	1484 ± 1.2
293 K, x1 = 0.0109	–	1484.2 ± 1.2
293 K, x1 = 0.0129	–	1484.5 ± 1.2
293 K, x1 = 0.0145	–	1484.7 ± 1.2
293 K, x1 = 0.0163	–	1485 ± 1.2
293 K, x1 = 0.0181	–	1485.2 ± 1.2
293 K, x1 = 0.0208	–	1485.6 ± 1.2
293 K, x1 = 0.0234	–	1485.9 ± 1.2
293 K, x1 = 0.0248	–	1486 ± 1.2
293 K, x1 = 0.0273	–	1486.3 ± 1.2
293 K, x1 = 0.0286	–	1486.4 ± 1.2
293 K, x1 = 0.0302	–	1486.5 ± 1.2
293 K, x1 = 0.0319	–	1486.6 ± 1.2
293 K, x1 = 0.0341	–	1486.7 ± 1.2
293 K, x1 = 0.0384	–	1486.7 ± 1.2
293 K, x1 = 0.0407	–	1486.9 ± 1.2
293 K, x1 = 0.0428	–	1486.9 ± 1.2
298 K, x1 = 0.0027	–	1497.1 ± 1.2
298 K, x1 = 0.003	–	1497.2 ± 1.2
298 K, x1 = 0.0048	–	1497.4 ± 1.2
298 K, x1 = 0.0074	–	1497.8 ± 1.2
298 K, x1 = 0.0094	–	1498.1 ± 1.2
298 K, x1 = 0.0109	–	1498.3 ± 1.2
298 K, x1 = 0.0129	–	1498.5 ± 1.2
298 K, x1 = 0.0145	–	1498.7 ± 1.2
298 K, x1 = 0.0163	–	1499 ± 1.2
298 K, x1 = 0.0181	–	1499.2 ± 1.2
298 K, x1 = 0.0208	–	1499.6 ± 1.2
298 K, x1 = 0.0234	–	1499.8 ± 1.2
298 K, x1 = 0.0248	–	1500 ± 1.2
298 K, x1 = 0.0273	–	1500.2 ± 1.2
298 K, x1 = 0.0286	–	1500.3 ± 1.2
298 K, x1 = 0.0302	–	1500.3 ± 1.2
298 K, x1 = 0.0319	–	1500.5 ± 1.2
298 K, x1 = 0.0341	–	1500.5 ± 1.2
298 K, x1 = 0.0384	–	1500.5 ± 1.2
298 K, x1 = 0.0407	–	1500.7 ± 1.2
